# Biological target: T1, human full-length recombinant PKC βII (Homo sapiens, UniProt P05771)
# T1 construct: Active human full-length recombinant PKC βII; purchased Invitrogen GmbH, Darmstadt, Germany
# Experiment: Determination of PKC βII inhibition (Caliper mobility-shift kinase assay, Fluorescein-RFARKGSLRQKNV peptide substrate)
# Assay type: biochemical
# Settings: example compounds at a final concentration of 1.14 μM (±0.15 μM)
# Summary of the method: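 Full-length PKC βII (30 ng/ml in pre-dilution) with PS/DAG/Ca2+ activators, pH 7.4; fluorescein peptide and ATP at 3 μM and 120 μM before mixing. Reaction ran 60 min at 32 °C, was EDTA-stopped, and was read by mobility shift. % inhibition came from product/(substrate+product) peak heights, tested at 1.14 μM final.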
# T1 sequence (P05771 1-673 isoform P05771-2): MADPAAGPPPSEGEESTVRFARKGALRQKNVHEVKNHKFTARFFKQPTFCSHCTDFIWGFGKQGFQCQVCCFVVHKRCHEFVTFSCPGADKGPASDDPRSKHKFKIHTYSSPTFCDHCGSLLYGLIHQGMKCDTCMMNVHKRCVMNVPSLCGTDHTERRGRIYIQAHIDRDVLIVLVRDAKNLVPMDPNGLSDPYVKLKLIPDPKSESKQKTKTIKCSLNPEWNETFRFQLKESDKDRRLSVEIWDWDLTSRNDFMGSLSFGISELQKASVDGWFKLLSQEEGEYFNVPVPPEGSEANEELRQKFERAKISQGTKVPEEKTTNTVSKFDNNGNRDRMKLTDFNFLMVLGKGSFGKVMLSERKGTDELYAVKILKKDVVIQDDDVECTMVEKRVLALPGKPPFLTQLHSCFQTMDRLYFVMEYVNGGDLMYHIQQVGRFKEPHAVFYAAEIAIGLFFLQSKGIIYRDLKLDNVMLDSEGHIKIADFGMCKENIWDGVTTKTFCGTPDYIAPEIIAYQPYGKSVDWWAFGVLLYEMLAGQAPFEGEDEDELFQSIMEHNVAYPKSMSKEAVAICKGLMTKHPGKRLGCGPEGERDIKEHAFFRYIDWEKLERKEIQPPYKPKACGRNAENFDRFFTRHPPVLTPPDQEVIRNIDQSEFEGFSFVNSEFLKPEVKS
row,SMILES,inhibition at 1.14 µM [%]
1,"Cc1n[nH]c2nc(-c3ccc(O)cc3)cc(C(=O)NCC(C)(CN3CCCC3)c3ccccn3)c12 (centres unmarked) [Example 286, 6-(4-Hydroxy-phenyl)-3-methyl-1H-pyrazolo[3,4-b]pyridine-4-carboxylic acid (2-methyl-2-pyridin-2-yl-3-pyrrolidin-1-yl-propyl)-amide]",62
2,"Cc1n[nH]c2nc(-c3ccc(O)cc3)cc(C(=O)N3CCC(CN4CCCCC4)CC3)c12 [Example 287, [6-(4-Hydroxy-phenyl)-3-methyl-1H-pyrazolo[3,4-b]pyridin-4-yl]-(4-piperidin-1-ylmethyl-piperidin-1-yl)-methanone]",34
3,"Cc1n[nH]c2nc(-c3ccc(O)c(F)c3)cc(C(=O)NC3CC4(CC(N)C4)C3)c12 (centres unmarked) [Example 288, 6-(3-Fluoro-4-hydroxy-phenyl)-3-methyl-1H-pyrazolo[3,4-b]pyridine-4-carboxylic acid (6-amino-spiro[3.3]hept-2-yl)-amide]",59
4,"Cc1n[nH]c2nc(-c3ccc(O)c(F)c3)cc(C(=O)N3CC4CNCC4C3)c12 (centres unmarked) [Example 289, [6-(3-Fluoro-4-hydroxy-phenyl)-3-methyl-1H-pyrazolo[3,4-b]pyridin-4-yl]-(hexahydro-pyrrolo[3,4-c]pyrrol-2-yl)-methanone]",84
5,"Cc1n[nH]c2nc(-c3ccc(O)c(F)c3)cc(C(=O)N3CCN[C@@H](C)C3)c12 [Example 290, [6-(3-Fluoro-4-hydroxy-phenyl)-3-methyl-1H-pyrazolo[3,4-b]pyridin-4-yl]-((S)-3-methyl-piperazin-1-yl)-methanone]",96
6,"CCC[C@@H]1CN(C(=O)c2cc(-c3ccc(O)c(F)c3)nc3[nH]nc(C)c23)CCN1 [Example 291, [6-(3-Fluoro-4-hydroxy-phenyl)-3-methyl-1H-pyrazolo[3,4-b]pyridin-4-yl]-((R)-3-propyl-piperazin-1-yl)-methanone]",89
7,"Cc1n[nH]c2nc(-c3ccc(O)c(F)c3)cc(C(=O)N3CC[C@H](N)C3)c12 [Example 292, ((S)-3-Amino-pyrrolidin-1-yl)-[6-(3-fluoro-4-hydroxy-phenyl)-3-methyl-1H-pyrazolo[3,4-b]pyridin-4-yl]-methanone]",77
8,"CCC[C@H]1CN(C(=O)c2cc(-c3ccc(O)c(F)c3)nc3[nH]nc(C)c23)CCN1 [Example 293, [6-(3-Fluoro-4-hydroxy-phenyl)-3-methyl-1H-pyrazolo[3,4-b]pyridin-4-yl]-((S)-3-propyl-piperazin-1-yl)-methanone]",89
9,"CCCC[C@H]1CN(C(=O)c2cc(-c3ccc(O)c(F)c3)nc3[nH]nc(C)c23)CCN1 [Example 294, ((S)-3-Butyl-piperazin-1-yl)-[6-(3-fluoro-4-hydroxy-phenyl)-3-methyl-1H-pyrazolo[3,4-b]pyridin-4-yl]-methanone]",85
10,"CC[C@H]1CN(C(=O)c2cc(-c3ccc(O)c(F)c3)nc3[nH]nc(C)c23)CCN1 [Example 295, ((S)-3-Ethyl-piperazin-1-yl)-[6-(3-fluoro-4-hydroxy-phenyl)-3-methyl-1H-pyrazolo[3,4-b]pyridin-4-yl]-methanone]",94
11,"Cc1n[nH]c2nc(-c3ccc(O)c(F)c3)cc(C(=O)N3CCNC4CS(=O)(=O)CC43)c12 (centres unmarked) [Example 296, (6,6-Dioxo-octahydro-6lambda6-thieno[3,4-b]pyrazin-1-yl)-[6-(3-fluoro-4-hydroxy-phenyl)-3-methyl-1H-pyrazolo[3,4-b]pyridin-4-yl]-methanone]",32
12,"COC(=O)[C@H]1CN(C(=O)c2cc(-c3ccc(O)c(F)c3)nc3[nH]nc(C)c23)CCN1 [Example 297, (R)-4-[6-(3-Fluoro-4-hydroxy-phenyl)-3-methyl-1H-pyrazolo[3,4-b]pyridine-4-carbonyl]-piperazine-2-carboxylic acid methyl ester]",34
13,"COC[C@H]1CN(C(=O)c2cc(-c3ccc(O)c(F)c3)nc3[nH]nc(C)c23)CCN1 [Example 298, [6-(3-Fluoro-4-hydroxy-phenyl)-3-methyl-1H-pyrazolo[3,4-b]pyridin-4-yl]-((R)-3-methoxymethyl-piperazin-1-yl)-methanone]",68
14,"Cc1n[nH]c2nc(-c3ccc(O)c(F)c3)cc(C(=O)NC3CC4(CCNCC4)c4ccccc43)c12 (centres unmarked) [Example 299, 6-(3-Fluoro-4-hydroxy-phenyl)-3-methyl-1H-pyrazolo[3,4-b]pyridine-4-carboxylic acid (2,3-dihydro-spiro[1H-indene-1,4′-piperidin]-3-yl)-amide]",92
15,"Cc1n[nH]c2nc(-c3ccc(O)c(F)c3)cc(C(=O)N3CCNCC3Cc3ccccc3)c12 (centres unmarked) [Example 300, (2-Benzyl-piperazin-1-yl)-[6-(3-fluoro-4-hydroxy-phenyl)-3-methyl-1H-pyrazolo[3,4-b]pyridin-4-yl]-methanone]",74
16,"Cc1n[nH]c2nc(-c3ccc(O)c(F)c3)cc(C(=O)NC3CC4CCC(C3)N4C)c12 (centres unmarked) [Example 301, 6-(3-Fluoro-4-hydroxy-phenyl)-3-methyl-1H-pyrazolo[3,4-b]pyridine-4-carboxylic acid (8-methyl-8-aza-bicyclo[3.2.1]oct-3-yl)-amide]",63
17,"Cc1n[nH]c2nc(-c3ccc(O)c(F)c3)cc(C(=O)NC3CNC3)c12 [Example 302, 6-(3-Fluoro-4-hydroxy-phenyl)-3-methyl-1H-pyrazolo[3,4-b]pyridine-4-carboxylic acid azetidin-3-ylamide]",82
18,"Cc1n[nH]c2nc(-c3ccc(O)c(F)c3)cc(C(=O)N3CCNC(C)C3)c12 (centres unmarked) [Example 303, [6-(3-Fluoro-4-hydroxy-phenyl)-3-methyl-1H-pyrazolo[3,4-b]pyridin-4-yl]-(3-methyl-piperazin-1-yl)-methanone]",93
19,"Cc1n[nH]c2nc(-c3ccc(O)c(F)c3)cc(C(=O)N3CCC(N)CC3)c12 [Example 304, (4-Amino-piperidin-1-yl)-[6-(3-fluoro-4-hydroxy-phenyl)-3-methyl-1H-pyrazolo[3,4-b]pyridin-4-yl]-methanone]",91
20,"Cc1n[nH]c2nc(-c3ccc(O)c(F)c3)cc(C(=O)N[C@@H]3CCCNC3)c12 [Example 305, 6-(3-Fluoro-4-hydroxy-phenyl)-3-methyl-1H-pyrazolo[3,4-b]pyridine-4-carboxylic acid (R)-piperidin-3-ylamide]",83
21,"Cc1n[nH]c2nc(-c3ccc(O)c(F)c3)cc(C(=O)N3C[C@H]4CNC[C@H]4C3)c12 [Example 306, [6-(3-Fluoro-4-hydroxy-phenyl)-3-methyl-1H-pyrazolo[3,4-b]pyridin-4-yl]-(3aR,6aS)-hexahydro-pyrrolo[3,4-c]pyrrol-2-yl-methanone]",76
22,"Cc1n[nH]c2nc(-c3ccc(O)c(F)c3)cc(C(=O)N3CCC4CNCC43)c12 (centres unmarked) [Example 308, [6-(3-Fluoro-4-hydroxy-phenyl)-3-methyl-1H-pyrazolo[3,4-b]pyridin-4-yl]-(hexahydro-pyrrolo[3,4-b]pyrrol-1-yl)-methanone]",60
23,"Cc1n[nH]c2nc(-c3ccc(O)c(F)c3)cc(C(=O)N[C@H]3C[C@H](N)C3)c12 [Example 309, 6-(3-Fluoro-4-hydroxy-phenyl)-3-methyl-1H-pyrazolo[3,4-b]pyridine-4-carboxylic acid (trans-3-amino-cyclobutyl)-amide]",71

# — patent US8686150B2 (Sanofi, priority 2011, dated 2014)
